{"source": "paper PMC9141032", "about": "(International Journal of Molecular Sciences, 2022)", "key": {"[1]": {"test": "Metabolic profiling in human liver microsomes (LC-HRMS)", "format": "in vitro ADME", "experimental": "(§1) The objective of the study is to evaluate the formation of the main metabolites from B06 in HLM incubations and MLM incubations preceding the in vivo metabolic study, using these same incubations to identify the possible metabolites. […] Reactions without NADPH were also incubated to rule out non-NADPH metabolism or chemical instability in the incubation buffer. Verapamil was included as positive control to monitor incubation course. All reactions were terminated using 60 µL of ice-cold acetonitrile at 0, 5, 15, 30, 45, and 60 min. The plates were centrifugated at 3500 rpm for 15 min. All experiments were conducted in triplicates. Samples were analysed by LC-HMRS in positive ionization mode. Compound incubations without NADPH and compound reference standard were used as interference control for each incubation sample.\nMetabolic profiling of B06 in human liver microsomes\nThe equipment used for the analysis was an Agilent 1290 Infinity UHPC, ABSciex 5600 QTOF Mass Spectrometer, Metabolite Pilot V 1.5 Sofware.\nMethod: ionization mode, electrospray positive; acquisition mode, TOF MS with IDA MS/MS; […]\nAll the tentative identified metabolites have been evaluated using of a score (40 value). This score depend on mass defect, isotope pattern, mass a ccur a cy and MS/MS. In all the cases the score was equal or greater than 68%.\nTable S9. Metabolite time course in HLM incubations for B06\nPeak Description Time Formula m/z Mass R.T. Peak % %\nID incubation error (min) Area Area Score […]"}, "[2]": {"test": "Metabolic profiling in mouse liver microsomes (LC-HRMS)", "format": "in vitro ADME", "experimental": "as §1\nMetabolic profiling of B06 in mouse liver microsomes\nThe equipment used for the analysis wa s an Agilent 1290 Infinity UHPC, ABSciex 5600 QTOF Mass Spectrometer, Metabolite Pilot V 1.5 Sofware.\nMethod: ionization mode, electrospray positive; acquisition mode, TOF MS with IDA MS/MS; colum, Atlantis T3 C18, 2.1 x 15 mm, 3 μ m; mobile phase, water:acetonitrile: 0.1% formic acid; flow […]\nAll the tentative identified metabolites have been evaluated using of a score (40 value). This score depend on mass defect, isotope pattern, mass accuracy and MS/MS. In all the cases the score was equal or greater than 68%.\nAll analytical determinations of B06 were performed in according to the recommendations of the […]\nTable S10. Metabolite time course in MLM incubations for B06\nPeak Description Time Formula m/z Mass R.T. Peak Area % %\nID incubation error (min) Area Score\n1 Safety testing of drug metabolites. Guidance for industry. U.S. Department of Health and Human Services Food and Drug Administration Center for Drug Evaluation and Research (CDER) March 2020 Pharmacology/Toxicology. https://www.fda.gov/regulatory‐information/search‐fda‐guidance‐ documents/safety‐testing‐drug‐metabolites"}, "SAMP8 murine model": {"system": "SAMP8 murine model", "conditions": "cited from earlier work"}, "[3]": {"system": "imidazoline I2 receptors (I2-IR)", "parameters": "method as in ref 32, 33 = [32]; 32. Escolano C. Pallás M. Griñán-Ferré C. Abás S. Callado L.-F. García-Sevilla J.A. Synthetic I 2 Imidazoline Receptor Ligands for Prevention or Treatment of Human Brain Disorders Patent WO 2019/12185 || [33]; PMID 32150414; doi:10.1021/acs.jmedchem.9b02080; 33. Abás S. Rodríguez-Arévalo S. Bagán A. Griñán-Ferré C. Vasilopoulou F. Brocos-Mosquera I. Muguruza C. Pérez B. Molins E. Luque F.J. Bicyclic α-Iminophosphonates as High Affinity Imidazoline I 2 Rec", "conditions": "cited from earlier work"}}}
{"smiles": "CCOP(=O)(O)[C@]1(c2ccccc2)N=C[C@H]2C(=O)N(c3ccc(F)c(Cl)c3)C(=O)[C@H]21", "note": "[Compound 1, ethyl hydrogen [(1R,3aS,6aS)-5-(3-chloro-4-fluorophenyl)-4,6-dioxo-1-phenyl-1,3a,4,5,6,6a-hexahydropyrrolo[3,4-c]pyrrol-1-yl]phosphonate]", "values": [{"measurement": "% Area of metabolite in chromatogram", "setting": "[1]; HLM incubation of B06, 15 min", "value": 8.4, "unit": "%"}, {"measurement": "% Area of metabolite in chromatogram", "setting": "[1]; HLM incubation of B06, 30 min", "value": 17.8, "unit": "%"}, {"measurement": "% Area of metabolite in chromatogram", "setting": "[1]; HLM incubation of B06, 45 min", "value": 26.2, "unit": "%"}, {"measurement": "% Area of metabolite in chromatogram", "setting": "[1]; HLM incubation of B06, 60 min", "value": 36, "unit": "%"}, {"measurement": "% Area of metabolite in chromatogram", "setting": "[1]; HLM incubation of B06, 60 min, listed as M1", "value": 36.0, "unit": "%"}, {"measurement": "% Area of metabolite in chromatogram", "setting": "[2]; MLM incubation of B06, 5 min", "value": 10.7, "unit": "%"}, {"measurement": "% Area of metabolite in chromatogram", "setting": "[2]; MLM incubation of B06, 15 min", "value": 30.9, "unit": "%"}, {"measurement": "% Area of metabolite in chromatogram", "setting": "[2]; MLM incubation of B06, 30 min", "value": 60.9, "unit": "%"}, {"measurement": "% Area of metabolite in chromatogram", "setting": "[2]; MLM incubation of B06, 45 min", "value": 81.6, "unit": "%"}, {"measurement": "% Area of metabolite in chromatogram", "setting": "[2]; MLM incubation of B06, 60 min", "value": 88.9, "unit": "%"}]}
{"smiles": "CCOP(=O)(OCC)C1(c2ccccc2)N=CN(Cc2ccc(F)c(Cl)c2)C1(C)C", "note": "(stereo not shown) [MCR5]", "values": [{"measurement": "effect on cognition and hallmarks", "setting": "SAMP8 murine model", "value": "cognitive improvement and amelioration of hallmarks"}]}
{"smiles": "c1ccc2c(c1)OCC(C1=NCCN1)O2", "note": "(stereo not shown) [idazoxan]", "values": [{"measurement": "ratio of I2/α2", "setting": "[3]; I2-IR ([3H]2-BFI) versus α2-AR ([3H]RX821002), human frontal cortex", "value": "non I2/α2 selectivity"}, {"measurement": "pKi", "setting": "[3]; membranes of post mortem human frontal cortex, against [3H]2-BFI", "value": "7.41 ± 0.63"}]}
